Square brackets hold non-standard residues; d marks the D form. Ends that are not written are not given here. pY = N[C@@H](Cc1ccc(OP(=O)(O)O)cc1)C(=O)O
Test system: p110β
Experiment: Transcreener ADP formation (fluorescence polarization), diC8-PIP2/POPS liposomes, mouse p110β complexes
Format: biochemical
Details: ADP formation, 10 μM, Figure 1B
Experimental: Figure 1 Inhibition of p110β by p85-Type Regulatory Subunits and Activation of the Complexes by RTK Phosphopeptide (A) Domain organization of p110β and the regulatory subunits p85α, p85β, and p55γ. The color scheme for the domains is used for all figures, unless otherwise stated. […] The inhibition is released upon addition of the 10 μM PDGFR pY2. […] The y axis is expressed as a change in fluorescence polarization (ΔmP), which is obtained by subtracting the observed polarization for the construct at a given enzyme concentration from the maximum fluorescence polarization for that construct. The plateau in these assays arises due to the competitive nature of the ADP detection system, based on displacement of ADP-Alexa 633 tracer from the ADP^2-antibody by ADP generated during the PI3K assay (see Supplemental Experimental Procedures). All measurements were done in triplicates, and the error bars indicate the standard error of the mean (SEM). […]
Figure 3 Mutation Y677A in p85β-cSH2 Releases Inhibitory Effect on p110β (A) Kinase activity (ADP formation) of p110β in a complex with p85β-icSH2-Y677A (Y677A-ic) compared to the wild-type complex (ic) in the absence and presence of 10 μM PDGFR pY2 (ADP formation on the y axis expressed as in Figure 1B). […]
The lipid kinase activity was determined using the Transcreener ADP2 FP Assay (BellBrook Labs, Madison, WI) according to manufacturer‟s specifications. This non-radioactive assay measures activity by quantitating the amount of ADP formed. The ADP formed by PI3K competes with fluorescent ADP tracer for binding to an anti-ADP antibody, thereby decreasing fluorescence polarization. Because of the competitive nature of this assay, the change in fluorescence polarization signal is not a linear function of enzyme activity, and a convenient measure of enzyme activity is the EC50, or the concentration of enzyme necessary to give half-maximal inhibition of labeled ADP binding to the antibody, for a given concentration of substrate and a fixed time of reaction at initial rate. […]

## ESDGG[pY]MDMSKDESID[pY]VPMLDMKGDIKYADIE [pY2, bis-phosphopeptide (PDGFR 735–767, with pY740 and pY751)]
  effect on activity of p110β/p85β-iSH2 or ΔABD-p110β: did not affect the activity
nicSH2, niSH2, or icSH2 complexes
  effect on kinase activity of complexes containing SH2 domains: stimulates kinase activity
